Assay results from patent US20210353593A1 (Chinook Therapeutics, Inc., priority 2019, published 2021).
Where two headings read alike, the source gives them in different places.

Test system: kidney tissue of g-ddY mice
[1] = 10 mg/kg/day vs untreated control
[2] = 20 mg/kg/day vs untreated control
[3] = 30 mg/kg/day vs untreated control

## CCCCN(CCCC)C(=O)CN1C[C@H](c2ccc3c(c2)OCO3)[C@@H](C(=O)O)[C@@H]1c1ccc(OC)cc1 [Atrasentan, (2R,3R,4S)-4-(1,3-benzodioxol-5-yl)-1-[2-(dibutylamino)-2-oxoethyl]-2-(4-methoxyphenyl)pyrrolidine-3-carboxylic acid]
10 mg/kg/day versus control
  number of downregulated genes: 15 genes
  number of upregulated genes: 25 genes
10 mg/kg/day vs control
  Acnat2 logFC: 0.9174
  Apoc1 logFC: −1.929
  Arnt1 logFC: 1.039
  Asl logFC: 0.707
  Bckdha logFC: 0.5492
  Bmp6 logFC: 0.7141
  Ccn1 logFC: −1.087
  Ccn2 logFC: −0.5379
  Cish logFC: −1.301
  Cryl1 logFC: 0.5206
  Dbp logFC: −1.205
  Dpep1 logFC: 0.6476
  Ethe1 logFC: 0.941
  Filipl1 logFC: −0.8186
  Frmd4b logFC: 0.6863
  Gapdh logFC: 0.6257
  Gem logFC: −1.508
  Gm15910 logFC: −1.397
  Hacl1 logFC: 0.6805
  Igf1 logFC: −0.8723
  Mapt logFC: 0.7035
  Mef2c logFC: −0.6217
  Mmd logFC: −1.012
  Mnt logFC: 0.6669
  Ndrg1 logFC: 0.9887
  Npas2 logFC: 1.415
  Nr4a1 logFC: −1.525
  Pde3b logFC: −0.6611
  Pdzd3 logFC: 0.7268
  Pdzk1ip1 logFC: 0.5308
  Pfkffb3 logFC: −1.166
  S100g logFC: 0.7546
  Sirt3 logFC: 0.7376
  Slc5a2 logFC: 0.7478
  Slc6a19 logFC: 0.8567
  Slc7a9 logFC: 0.5456
  Slc16a1 logFC: 0.9808
  Slc19a1 logFC: 0.6451
  Slc34a3 logFC: 0.8923
  Zeb2 logFC: −0.5638
[1]
  ET1 gene signature genes downregulated: Grk5, Mllt3, Klf2, Pparg, Hgf, Edn1, Fos, Ptgs2, and IL-1b
  ET1 gene signature genes upregulated: Ccnd1, Ppara, Agt, Map2k2 and Hoxa9
20 mg/kg/day versus control
  number of downregulated genes: 281 genes
  number of upregulated genes: 214 genes
20 mg/kg/day vs control
  1700101I11Rik logFC: 1.658
  A530016L24Rik logFC: −3.027
  Abcd2 logFC: −2.686
  Adcy2 logFC: −2.484
  Ankef1 logFC: −3.382
  Apol6 logFC: −3.616
  Aspdh logFC: 0.9646
  Bche logFC: −4.062
  C5ar2 logFC: −4.271
  Cadm3 logFC: −2.439
  Ccl8 logFC: −2.999
  Ccl20 logFC: −3.563
  Clec2h logFC: 1.078
  Cndp1 logFC: 0.9373
  Dio2 logFC: −3.823
  Dnase1 logFC: 1.086
  Ebf2 logFC: −3.715
  Fcamr logFC: 1.182
  Frs3 logFC: 1.094
  Ftcd logFC: 1.086
  Glis1 logFC: 0.8776
  Hao2 logFC: 0.9855
  Hrg logFC: 4.888
  Igibp1 logFC: 2.82
  Il1b logFC: −3.029
  Iv1 logFC: −3.8887
  Klf15 logFC: 0.8799
  Krt5 logFC: −3.044
  Lep logFC: −5.905
  Lgals12 logFC: −2.536
  Lhx1 logFC: 0.9258
  Ly6d logFC: −3.377
  Morn2 logFC: 0.9375
  Nat81 logFC: −3.263
  Ndrg1 logFC: 0.8946
  Npas2 logFC: 1.012
  Otop1 logFC: −5.808
  Paral1 logFC: −5.133
  Pfn3 logFC: 0.934
  Plekhs1 logFC: −3.661
  Prkar2b logFC: −2.468
  Prodh logFC: 0.8987
  Pvalb logFC: 0.9441
  Ren1 logFC: 1.117
  Slc6a19 logFC: 0.9585
  Slc34a3 logFC: 0.9345
  Sprr2a3 logFC: −4.403
  Tmem37 logFC: 0.9439
  Tns4 logFC: −2.381
[2]
  ET1 gene signature genes downregulated: Nfatc1, Grk5, Klf2, Cav1, Pparg, Itga5, Myc, Ednra, Sell, Hgf, Mmp2, Edn1, Syk, Fos, and IL-1b
  ET1 gene signature genes upregulated: Ccdn1, Cat, Ppara, Map2k2, Hoxa9, Agt, and Egfr
30 mg/kg/day
  Ednra and Ednrb gene expression: downregulated
30 mg/kg/day versus control
  number of downregulated genes: 768 genes
  number of upregulated genes: 910 genes
30 mg/kg/day vs control
  1700003D09Rik logFC: −2.087
  1700101I11Rik logFC: 1.613
  A530016L24Rik logFC: −3.0348
  Adamts17 logFC: −3.191
  Adcy2 logFC: −2.327
  Ankef1 logFC: −2.3582
  Arhgap36 logFC: −2.908
  Atf3 logFC: −2.22
  Bhmt logFC: 4.173
  Calb1 logFC: 1.211
  Ccl20 logFC: −2.471
  Chadl logFC: 1.41
  Clec2h logFC: 1.215
  Clec4d logFC: −4.65
  Cxcl2 logFC: −2.6664
  Cyp27b1 logFC: 1.35
  E030018B13Rik logFC: −2.373
  Ebf2 logFC: −2.386
  Ethe1 logFC: 1.211
  Fam163b logFC: −2.785
  Fat3 logFC: −2.067
  Frs3 logFC: 1.176
  G6pc logFC: 1.207
  Gm20026 logFC: −2.0755
  Igfbp1 logFC: 3.447
  Igkv3-5 logFC: −2.722
  Il1b logFC: −2.263
  Kcnk2 logFC: −2.431
  Kif1a logFC: −2.108
  Misp3 logFC: 1.307
  Mogat2 logFC: 1.285
  Ndrg1 logFC: 1.197
  Nepn logFC: 1.291
  Nkx3-1 logFC: 1.294
  Npas2 logFC: 1.394
  Pgam2 logFC: 1.24
  Plch2 logFC: −2.423
  Pvalb logFC: 1.389
  Ren1 logFC: 1.531
  Rnf182 logFC: −2.817
  S100g logFC: 1.296
  Slc6a19 logFC: 1.238
  Slc16a1 logFC: 1.178
  Slc34a3 logFC: 1.436
  Stx1b logFC: −2.245
  Tns4 logFC: −2.443
  Wnt10a logFC: −2.071
  Xirp2 logFC: −2.619
[3]
  ET1 gene signature genes downregulated: Ednrb, Myc, Mllt3, Hdac7, Ednra, Itga5, Grk5, Pparg, Klf2, Hgf, Mmp2, Sell, Sphk1, Fos, Syk, Edn1, and IL-1b
  ET1 gene signature genes upregulated: Ccnd1, Agt, Cat, Map2k2, Hoxa9, and Ppara
All three doses (10, 20, 30 mg/kg/day)
  ET1 (End1) gene expression: downregulated
Atrasentan treated mice
  genes overlapping with human specific Atra/ET1 gene signature: 53 of 60
